In brackets after ≈: the same amount, converted by molar mass. Counter-ions that a name gives are not always drawn.
What was measured:
[1] = Determination of solubility (equilibration in solvent, filtrate by HPLC); assay type: physicochemical
Method: Excess free base (free base of Formula I), its phosphate salt (the monophosphoric acid salt of the free base), or another acid salt was equilibrated in solvents for 1 day at 25±0.5° C. The resultant slurry was filtered and the filtrate used for solubility determination by HPLC.
Solubility of the monohydrate of the anhydrous and monohydrate free base was measured in various aqueous media (e.g., pH 6.8 buffer, pH 4.5 buffer, pH 1 buffer), including simulated and actual human fluids.
The human fluids were collected from 12 human subjects.
Solubility studies of the phosphate salt were undertaken in aqueous media and in human fluids at 24 hours.

[2] = Intrinsic dissolution rate; assay type: physicochemical; conditions: 37° C., disc 200 rpm, 290 nm
Method: The intrinsic dissolution rate measurements were carried out in 0.5 cm^2 VanKel punch and die assemblies at a pellet pressure of 2000 pounds. […]
The intrinsic dissolution rate was determined for the phosphate salt in water, pH=6.8 and 0.1N HCl, and for the free base monohydrate in pH=6.8, 4.5 and 0.1N HCl. The measurements were carried out on a VanKel instrument using a Cary UV/VIS spectrophotometer (Table 2).

Compound: CCN1CCN(c2ccc(Nc3cc(N(C)C(=O)Nc4c(Cl)c(OC)cc(OC)c4Cl)ncn3)cc2)CC1 [Free Base, 3-(2,6-Dichloro-3,5-dimethoxy-phenyl)-1-{6-[4-(4-ethyl-piperazin-1-yl)-phenylamino]-pyrimidin-4-yl}-1-methyl-urea]
- Solubility in mg/ml after 24 h ([1]; Fasted State Simulated Intestinal Fluid (FaSSIF), listed as Anhydrous Free Base): 0.001 mg/mL (≈ 1.78 µM)
- Solubility in mg/ml after 24 h ([1]; Fed State Simulated Intestinal Fluid (FeSSIF), listed as Anhydrous Free Base): 0.148 mg/mL (≈ 264 µM)
- Solubility in mg/ml after 24 h ([1]; HIF, fed, listed as Anhydrous Free Base): 0.004 mg/mL (≈ 7.14 µM)
- Solubility in mg/ml after 24 h ([1]; Human gastric fluid (HGF), listed as Anhydrous Free Base): 0.001 mg/mL (≈ 1.78 µM)
- Solubility in mg/ml after 24 h ([1]; Human intestinal fluid (HIF) fasted, listed as Anhydrous Free Base): 0.002 mg/mL (≈ 3.57 µM)
- Solubility in mg/ml after 24 h ([1]; Simulated Gastric Fluid (SGF), listed as Anhydrous Free Base): 0.0497 mg/mL (≈ 88.7 µM)
- solubility in common organic solvents (in words) ([1]; listed as anhydrous free base): sparingly to slightly soluble
- Solubility ([1]; initial solubility test, Water): 1 µg/mL (≈ 1.78 µM)
- Solubility ([1]; initial solubility test, pH3 Buffer): 200 µg/mL (≈ 357 µM)
- solubility at 24 h ([1]; pH 1 HCl, 25 °C, pH 1, simulated gastric fluid, thermodynamic from solid, pH 1 HCl, read-out: Solubility in mg/ml after 24 h): 0.052 mg/mL (≈ 92.8 µM)
- Solubility ([1]; pH 6.8 buffer, listed as anhydrous free base): ca. 0.00004 mg/mL
- Solubility in mg/ml after 24 h ([1]; ph 4.5 Acetate, listed as Anhydrous Free Base): 0.008 mg/mL (≈ 14.3 µM)
- Solubility in mg/ml after 24 h ([1]; ph 6.8 Phosphate): <LOQ*
- Solubility ([1]; water (free base: pH 6.67), listed as anhydrous free base): ~0.09 µg/mL (≈ 0.161 µM)
- Intrinsic DR value ([2]; HCl 0.1N, listed as Anhydrous Free Base): 0.28 mg/min/cm^2
- Intrinsic DR value ([2]; Water, listed as Anhydrous Free Base): 0.01 mg/min/cm^2

Compound: CCN1CCN(c2ccc(Nc3cc(N(C)C(=O)Nc4c(Cl)c(OC)cc(OC)c4Cl)ncn3)cc2)CC1 [Phosphate salt (form A)]
- Solubility in mg/ml after 24 h ([1]; Fasted State Simulated Intestinal Fluid (FaSSIF), listed as Phosphate Salt): 0.003 mg/mL
- Solubility in mg/ml after 24 h ([1]; Fed State Simulated Intestinal Fluid (FeSSIF), listed as Phosphate Salt): 1.067 mg/mL
- Solubility in mg/ml after 24 h ([1]; HIF, fed, listed as Phosphate Salt): 0.00141 mg/mL
- Solubility in mg/ml after 24 h ([1]; Human gastric fluid (HGF), listed as Phosphate Salt): 0.0115 mg/mL
- Solubility in mg/ml after 24 h ([1]; Human intestinal fluid (HIF) fasted, listed as Phosphate Salt): 0.00223 mg/mL
- Solubility in mg/ml after 24 h ([1]; Simulated Gastric Fluid (SGF), listed as Phosphate Salt): 0.088 mg/mL
- solubility in common organic solvents (in words) [1]: sparingly soluble
- Solubility ([1]; initial solubility test, Water, listed as Phosphate): 1700 µg/mL
- Solubility ([1]; initial solubility test, pH3 Buffer, listed as Phosphate): 39 µg/mL
- Solubility in mg/ml after 24 h ([1]; pH 1 HCl, listed as Phosphate Salt): 0.089 mg/mL
- Solubility ([1]; pH 6.8 buffer): ca. 0.00009 mg/mL
- Solubility in mg/ml after 24 h ([1]; ph 4.5 Acetate, listed as Phosphate Salt): 0.731 mg/mL
- Solubility ([1]; water (free base: pH 6.67)): 1300 µg/mL
- Intrinsic DR value ([2]; HCl 0.1N): 1.0661 mg/min/cm^2
- Intrinsic DR value ([2]; Water): 0.3279 mg/min/cm^2
- Intrinsic DR value ([2]; pH = 6.8): 0.0056 mg/min/cm^2

Source: US9067896B2, “Crystalline forms of 3-(2,6-dichloro-3,5-dimethoxy-phenyl)-1-{6-[4-(4-ethyl-piperazin-1-yl) -phenylamino]-pyrimidin-4-yl}-1-methyl-urea and salts thereof” (Novartis AG, priority 2009, dated 2015)
